Experimental data taken from ChEMBL document CHEMBL1201862, “PubChem BioAssay data set” (2004).
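Following 48 hours of exposure in 96-well plates, responses at five concentrations were used to interpolate endpoints linearly. GI50 marks 50% less growth.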 Calls of active or inactive are those of the source. No stated cut-off is given here; in the data, active = GI50 up to about 1.1 µM and inactive = higher.

What was measured:
Assay in all cases: inhibition of tumour cell growth, NCI panel, 48 h
RXF 393 = test system: RXF 393
SF-295 = test system: SF-295
SN12C = test system: SN12C
SF-268 = test system: SF-268
A498 = test system: A498
LOX IMVI = test system: LOX IMVI
TK-10 = test system: TK-10
M14 = test system: M14
A549 = test system: A549
OVCAR-5 = test system: OVCAR-5
HOP-62 = test system: HOP-62
U-251 = test system: U-251
DMS-114 = test system: DMS-114
COLO 205 = test system: COLO 205
SK-MEL-28 = test system: SK-MEL-28
NCI-H522 = test system: NCI-H522
SK-MEL-2 = test system: SK-MEL-2
IGROV-1 = test system: IGROV-1
UACC-62 = test system: UACC-62
ACHN = test system: ACHN
EKVX = test system: EKVX
HCC 2998 = test system: HCC 2998
SW-620 = test system: SW-620
SNB-19 = test system: SNB-19
M19-MEL = test system: M19-MEL
HCT-116 = test system: HCT-116
HCT-15 = test system: HCT-15
OVCAR-4 = test system: OVCAR-4
UACC-257 = test system: UACC-257
OVCAR-8 = test system: OVCAR-8
CAKI-1 = test system: CAKI-1
786-0 = test system: 786-0
KM12 = test system: KM12
SK-MEL-5 = test system: SK-MEL-5
SNB-75 = test system: SNB-75
UO-31 = test system: UO-31
HL-60 = test system: HL-60
HOP-18 = test system: HOP-18
CCRF-CEM = test system: CCRF-CEM
NCI-H23 = test system: NCI-H23
OVCAR-3 = test system: OVCAR-3
HOP-92 = test system: HOP-92
NCI-H226 = test system: NCI-H226
SNB-78 = test system: SNB-78
RPMI-8226 = test system: RPMI-8226
KM-20L2 = test system: KM-20L2
DMS-273 = test system: DMS-273
SR = test system: SR
NCI-H460 = test system: NCI-H460
MOLT-4 = test system: MOLT-4
Malme-3M = test system: Malme-3M
SK-OV-3 = test system: SK-OV-3
SF-539 = test system: SF-539
HT-29 = test system: HT-29
K562 = test system: K562
DLD-1 = test system: DLD-1
LXFL 529 = test system: LXFL 529
NCI/ADR-RES = test system: NCI/ADR-RES
XF498 = test system: XF498

`N#CC(C(=O)C(=O)NCCCNC(=O)C(=O)C(C#N)c1ccccc1)c1ccccc1` (centres undefined) was tested, and the GI50 (RXF 393) was > 100000 nM (inactive), the GI50 (SF-295) was > 100000 nM (inactive) and the GI50 (SN12C) was > 100000 nM (inactive). For the same molecule, the GI50 (SF-268) was > 100000 nM (inactive), the GI50 (A498) was > 100000 nM (inactive) and the GI50 (LOX IMVI) was > 100000 nM (inactive). The GI50 (TK-10) was > 100000 nM (inactive), the GI50 (M14) was > 100000 nM (inactive) and the GI50 (A549) was > 100000 nM (inactive). For the same molecule, the GI50 (OVCAR-5) was > 100000 nM (inactive), the GI50 (HOP-62) was > 100000 nM (inactive) and the GI50 (U-251) was > 100000 nM (inactive). For the same molecule, the GI50 (DMS-114) was > 100000 nM (inactive), the GI50 (COLO 205) was > 100000 nM (inactive) and the GI50 (SK-MEL-28) was > 100000 nM (inactive). The GI50 (NCI-H522) was > 100000 nM (inactive), the GI50 (SK-MEL-2) was > 100000 nM (inactive) and the GI50 (IGROV-1) was > 100000 nM (inactive). The GI50 (UACC-62) was > 100000 nM (inactive), the GI50 (ACHN) was > 100000 nM (inactive) and the GI50 (EKVX) was > 100000 nM (inactive). The GI50 (HCC 2998) was > 100000 nM (inactive), the GI50 (SW-620) was > 100000 nM (inactive) and the GI50 (SNB-19) was 5330 nM (inactive). For the same molecule, the GI50 (M19-MEL) was > 100000 nM (inactive), the GI50 (HCT-116) was > 100000 nM (inactive) and the GI50 (HCT-15) was > 100000 nM. For the same molecule, the GI50 (OVCAR-4) was > 100000 nM (inactive), the GI50 (UACC-257) was > 100000 nM (inactive) and the GI50 (OVCAR-8) was > 100000 nM (inactive). The GI50 (CAKI-1) was 16.7 nM (active), the GI50 (786-0) was > 100000 nM (inactive) and the GI50 (KM12) was > 100000 nM (inactive). The GI50 (SK-MEL-5) was > 100000 nM (inactive), the GI50 (SNB-75) was 30100 nM (inactive) and the GI50 (UO-31) was > 100000 nM (inactive). For the same molecule, the GI50 (HL-60) was > 100000 nM (inactive), the GI50 (HOP-18) was > 100000 nM (inactive) and the GI50 (CCRF-CEM) was > 100000 nM (inactive). For the same molecule, the GI50 (NCI-H23) was > 100000 nM (inactive), the GI50 (OVCAR-3) was > 100000 nM (inactive) and the GI50 (HOP-92) was > 100000 nM (inactive). For the same molecule, the GI50 (NCI-H226) was > 100000 nM (inactive), the GI50 (SNB-78) was > 100000 nM (inactive) and the GI50 (RPMI-8226) was > 100000 nM (inactive). The GI50 (KM-20L2) was > 100000 nM (inactive), the GI50 (DMS-273) was > 100000 nM (inactive) and the GI50 (SR) was > 100000 nM (inactive). The GI50 (NCI-H460) was > 100000 nM (inactive), the GI50 (MOLT-4) was > 100000 nM (inactive) and the GI50 (Malme-3M) was > 100000 nM (inactive). For the same molecule, the GI50 (SK-OV-3) was > 100000 nM (inactive), the GI50 (SF-539) was > 100000 nM (inactive) and the GI50 (HT-29) was > 100000 nM (inactive). For the same molecule, the GI50 (K562) was > 100000 nM (inactive), the GI50 (DLD-1) was > 100000 nM (inactive) and the GI50 (LXFL 529) was > 100000 nM (inactive).
`CNC(=O)c1cccc2c(Nc3ccc(NS(C)(=O)=O)cc3OC)c3cccc(C)c3nc12` was tested, and the GI50 (RXF 393) was 533 nM (active), the GI50 (SF-295) was 33.3 nM (active) and the GI50 (SN12C) was 32.6 nM (active). The GI50 (SF-268) was 114 nM (active), the GI50 (A498) was 84.1 nM (active) and the GI50 (LOX IMVI) was 48.8 nM (active). For the same molecule, the GI50 (TK-10) was 1240 nM (inactive), the GI50 (M14) was 102 nM (active) and the GI50 (A549) was 15.1 nM (active). The GI50 (OVCAR-5) was 282 nM (active), the GI50 (HOP-62) was 24.4 nM (active) and the GI50 (U-251) was 25.1 nM (active). The GI50 (DMS-114) was 32.2 nM (active), the GI50 (COLO 205) was 542 nM (active) and the GI50 (SK-MEL-28) was 2210 nM (inactive). For the same molecule, the GI50 (NCI-H522) was 279 nM (active), the GI50 (SK-MEL-2) was 1640 nM (inactive) and the GI50 (IGROV-1) was 1310 nM (inactive). The GI50 (UACC-62) was 63.1 nM (active), the GI50 (ACHN) was 14 nM (active) and the GI50 (EKVX) was 1340 nM (inactive). The GI50 (HCC 2998) was 568 nM (active), the GI50 (SW-620) was 169 nM (active) and the GI50 (SNB-19) was 55.5 nM (active). The GI50 (NCI/ADR-RES) was 2260 nM (inactive), the GI50 (M19-MEL) was 585 nM (active) and the GI50 (HCT-116) was 243 nM (active). The GI50 (HCT-15) was 225 nM, the GI50 (XF498) was 196 nM (active) and the GI50 (OVCAR-4) was 1900 nM (inactive). For the same molecule, the GI50 (UACC-257) was 1700 nM (inactive), the GI50 (OVCAR-8) was 333 nM (active) and the GI50 (CAKI-1) was 20.7 nM (active). The GI50 (786-0) was 48.3 nM (active), the GI50 (KM12) was 479 nM (active) and the GI50 (SK-MEL-5) was 131 nM (active). For the same molecule, the GI50 (SNB-75) was 122 nM (active), the GI50 (UO-31) was 425 nM (active) and the GI50 (HL-60) was 13.1 nM (active). The GI50 (HOP-18) was 571 nM (active), the GI50 (CCRF-CEM) was 13.3 nM (active) and the GI50 (NCI-H23) was 41.8 nM (active). For the same molecule, the GI50 (OVCAR-3) was 1390 nM (inactive), the GI50 (HOP-92) was 228 nM (active) and the GI50 (NCI-H226) was 54.6 nM (active). The GI50 (RPMI-8226) was 52.5 nM (active), the GI50 (KM-20L2) was 409 nM (active) and the GI50 (DMS-273) was 21.9 nM (active). The GI50 (SR) was < 10 nM (active), the GI50 (NCI-H460) was < 10 nM (active) and the GI50 (MOLT-4) was 11.3 nM (active). For the same molecule, the GI50 (Malme-3M) was 430 nM (active), the GI50 (SK-OV-3) was 54 nM (active) and the GI50 (SF-539) was 62.8 nM (active). The GI50 (HT-29) was 478 nM (active), the GI50 (K562) was 230 nM (active) and the GI50 (LXFL 529) was 1910 nM (inactive).
